6 compounds from patent US12139520B2 (priority 2020, dated 2024) can be followed below.

Data set [1] in a line: Physical stability of peptide analogues (Thioflavin T fibrillation). The format is physicochemical. The note with it: maximum ThT signal normalized between hAMY maximum and buffer background; 40° C., shaking, four days; pH 7 per table title. In a few lines: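 ThT fluorescence (450 nm excitation, 480 nm emission; 4 μM dye) was read every 10 min over four days at 40° C under 700 rpm shaking stress, after 1 h in pH 4 acetate or pH 7 phosphate (50 mM). Peak smoothed signal expressed as percent, scaled between buffer background and hAMY maximum.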

The target of data set [2] is hAM1 receptor (Homo sapiens, UniProt O60895+Q16602). In words: cAMP assay for in vitro receptor activation, hAM1-R. The format is cell-based. The note with it: cAMP assay, hAM1 receptor; read-out: hAM1R EC50. A digest of the protocol: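 Receptor activation, read as cAMP, was assessed in thawed cells of a monoclonal hAM1-overexpressing stable line, plated at 8000 cells/well in DPBS supplemented with 0.05% casein and 0.5 mM IBMX.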
hAM1 receptor, sequence (Q16602 23-461): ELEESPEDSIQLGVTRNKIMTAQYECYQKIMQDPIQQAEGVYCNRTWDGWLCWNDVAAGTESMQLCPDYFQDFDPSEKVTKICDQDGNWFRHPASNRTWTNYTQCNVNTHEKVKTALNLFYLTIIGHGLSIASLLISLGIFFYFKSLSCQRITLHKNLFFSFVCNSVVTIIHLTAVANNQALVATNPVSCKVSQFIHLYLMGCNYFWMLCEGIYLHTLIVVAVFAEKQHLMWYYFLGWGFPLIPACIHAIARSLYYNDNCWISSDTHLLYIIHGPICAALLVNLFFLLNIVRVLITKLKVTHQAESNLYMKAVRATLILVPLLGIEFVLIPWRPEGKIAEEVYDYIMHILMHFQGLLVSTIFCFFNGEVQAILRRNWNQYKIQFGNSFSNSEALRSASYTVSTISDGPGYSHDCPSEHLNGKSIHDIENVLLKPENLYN
hAM1 receptor, sequence (O60895 43-175 partner): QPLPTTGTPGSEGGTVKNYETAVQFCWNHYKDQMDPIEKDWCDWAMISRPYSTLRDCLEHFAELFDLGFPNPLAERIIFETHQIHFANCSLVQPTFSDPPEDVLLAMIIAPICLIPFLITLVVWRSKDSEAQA
For orientation: cAMP levels reflect the balance of adenylyl cyclase and phosphodiesterase activity.

For data set [3], the target named is T1, hAMY3 receptor (Homo sapiens, UniProt O60896+P30988).
T1 sequence (P30988 25-474): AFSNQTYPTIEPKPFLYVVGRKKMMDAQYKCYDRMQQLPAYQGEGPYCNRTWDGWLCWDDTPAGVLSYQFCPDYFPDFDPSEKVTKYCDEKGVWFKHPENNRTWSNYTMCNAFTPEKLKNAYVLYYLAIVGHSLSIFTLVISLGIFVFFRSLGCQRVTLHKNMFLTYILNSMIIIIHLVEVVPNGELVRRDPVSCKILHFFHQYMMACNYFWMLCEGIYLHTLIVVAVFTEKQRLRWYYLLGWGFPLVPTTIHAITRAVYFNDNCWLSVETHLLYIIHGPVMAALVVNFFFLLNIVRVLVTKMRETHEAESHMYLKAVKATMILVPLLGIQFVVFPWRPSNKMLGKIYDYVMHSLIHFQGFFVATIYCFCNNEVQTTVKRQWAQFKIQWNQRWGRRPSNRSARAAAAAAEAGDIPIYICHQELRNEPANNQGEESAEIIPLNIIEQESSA
T1 sequence (O60896 24-148 partner): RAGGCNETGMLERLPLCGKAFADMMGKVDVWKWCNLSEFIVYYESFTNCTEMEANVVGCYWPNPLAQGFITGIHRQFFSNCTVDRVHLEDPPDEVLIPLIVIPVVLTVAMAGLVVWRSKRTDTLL
As to the kind of experiment: cAMP assay for in vitro receptor activation, hAMY3-R. It is filed as cell-based. The note with it: cAMP assay, hAMY3 receptor; read-out: hAMY3R EC50. A digest of the protocol: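 Monoclonal cell line stably overexpressing human AMY3 receptor, 2000 cells/well in DPBS with 0.05% casein and 0.5 mM IBMX. Stimulated 30 min at room temperature with graded compound doses, human amylin as positive control. cAMP accumulation read by TR-FRET after one hour.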

Bridge positions count the residues as written; N and C are the ends. Square brackets hold non-standard residues; d marks the D form. Peptide text beside a SMILES is read from it. Hyp = O=C(O)[C@@H]1C[C@@H](O)CN1; Cit = NC(=O)NCCC[C@H](N)C(=O)O

Consider `CC[C@H](C)[C@H](NC(=O)[C@H](CCC(N)=O)NC(=O)[C@H](Cc1c[nH]cn1)NC(=O)[C@H](C)NC(=O)[C@H](CC(C)C)NC(=O)[C@H](CCCNC(N)=O)NC(=O)[C@H](CCC(N)=O)NC(=O)[C@@H](NC(=O)[C@@H](NC(=O)[C@@H]1CSSC[C@H](NC(=O)CN)C(=O)N[C@@H](CCCNC(=N)N)C(=O)N[C@@H](Cc2ccccc2)C(=O)NCC(=O)N[C@@H]([C@@H](C)O)C(=O)N1)[C@@H](C)O)C(C)C)C(=O)N[C@@H](Cc1ccc(O)cc1)C(=O)N[C@@H](CCC(N)=O)C(=O)N[C@@H](Cc1ccccc1)C(=O)N[C@H](C(=O)N[C@@H](CC(=O)O)C(=O)N[C@@H](CCCCN)C(=O)N[C@@H](CC(=O)O)C(=O)N[C@@H](CCCCN)C(=O)N[C@@H](CC(=O)O)C(=O)N[C@@H](CC(N)=O)C(=O)N[C@H](C(=O)N[C@@H](C)C(=O)N1CCC[C@H]1C(=O)N[C@@H](CCCNC(=N)N)C(=O)N[C@H](C(=O)N[C@@H](CCCCN)C(=O)N[C@H](C(=O)N[C@@H](CO)C(=O)N1CCC[C@H]1C(=O)N[C@@H](CC(N)=O)C(=O)NCC(=O)N1C[C@H](O)C[C@H]1C(N)=O)C(C)C)[C@@H](C)O)C(C)C)[C@@H](C)O` [compound 288] (H-GCRFGTCTVQ[Cit]LAHQIYQFTDKDKDNVAPRTKVSPNG[Hyp]-NH2; disulfide 2-7; N-terminus assumed), for which the “Max ThT signal (%)” value in data set [1] worked out at 17.450%. Moreover, the values for the concentration for a half-maximal effect (EC50) in data set [2] and in data set [3] were greater than 5000 nM and 0.03 nM, respectively.
For the compound `CC[C@H](C)[C@H](NC(=O)[C@H](CCC(N)=O)NC(=O)[C@H](Cc1c[nH]cn1)NC(=O)[C@H](C)NC(=O)[C@H](CC(C)C)NC(=O)[C@H](CCCNC(N)=O)NC(=O)[C@H](CCC(N)=O)NC(=O)[C@@H](NC(=O)[C@@H](NC(=O)[C@@H]1CSSC[C@H](NC(=O)CN)C(=O)N[C@@H](CCCNC(=N)N)C(=O)N[C@@H]([C@@H](C)O)C(=O)NCC(=O)N[C@@H]([C@@H](C)O)C(=O)N1)[C@@H](C)O)C(C)C)C(=O)N[C@@H](Cc1ccc(O)cc1)C(=O)N[C@@H](CCC(N)=O)C(=O)N[C@@H](Cc1ccccc1)C(=O)N[C@H](C(=O)N[C@@H](CC(=O)O)C(=O)N[C@@H](CCCCN)C(=O)N[C@@H](CC(=O)O)C(=O)N[C@@H](CCCCN)C(=O)N[C@@H](CC(=O)O)C(=O)N[C@@H](CC(N)=O)C(=O)N[C@H](C(=O)N[C@@H](C)C(=O)N1CCC[C@H]1C(=O)N[C@@H](CCCNC(=N)N)C(=O)N[C@@H](CO)C(=O)N[C@@H](CCCCN)C(=O)N[C@H](C(=O)NCC(=O)N1CCC[C@H]1C(=O)N[C@@H](CC(N)=O)C(=O)NCC(=O)N1C[C@H](O)C[C@H]1C(N)=O)C(C)C)C(C)C)[C@@H](C)O` [compound 290] (H-GCRTGTCTVQ[Cit]LAHQIYQFTDKDKDNVAPRSKVGPNG[Hyp]-NH2; disulfide 2-7; N-terminus assumed), the “Max ThT signal (%)” value in data set [1] worked out at 17.300%. For the same compound, the EC50 (commonly the midpoint of the concentration-response curve) was greater than 5000 nM in data set [2] and 0.047 nM in data set [3].
For `CC[C@H](C)[C@H](NC(=O)[C@H](CCC(N)=O)NC(=O)[C@H](Cc1c[nH]cn1)NC(=O)[C@H](C)NC(=O)[C@H](CC(C)C)NC(=O)[C@H](CCCNC(N)=O)NC(=O)[C@H](CCC(N)=O)NC(=O)[C@@H](NC(=O)[C@@H](NC(=O)[C@@H]1CSSC[C@H](NC(=O)CN)C(=O)N[C@@H](CCCNC(=N)N)C(=O)N[C@@H](Cc2ccccc2)C(=O)NCC(=O)N[C@@H]([C@@H](C)O)C(=O)N1)[C@@H](C)O)C(C)C)C(=O)N[C@@H](Cc1ccc(O)cc1)C(=O)N[C@@H](CCC(N)=O)C(=O)N[C@@H](Cc1ccccc1)C(=O)N[C@H](C(=O)N[C@@H](CC(=O)O)C(=O)N[C@@H](CCCCN)C(=O)N[C@@H](CC(=O)O)C(=O)N[C@@H](CCCCN)C(=O)N[C@@H](CC(=O)O)C(=O)N[C@@H](CC(N)=O)C(=O)N[C@H](C(=O)N[C@@H](C)C(=O)N1CCC[C@H]1C(=O)N[C@@H](CCCNC(=N)N)C(=O)N[C@H](C(=O)N[C@@H](CC(N)=O)C(=O)N[C@H](C(=O)N[C@@H](CO)C(=O)N1CCC[C@H]1C(=O)N[C@@H](CCC(N)=O)C(=O)NCC(=O)N1C[C@H](O)C[C@H]1C(N)=O)[C@@H](C)CC)[C@@H](C)O)C(C)C)[C@@H](C)O` [compound 291] (H-GCRFGTCTVQ[Cit]LAHQIYQFTDKDKDNVAPRTNISPQG[Hyp]-NH2; disulfide 2-7), in that order: 19.200%, greater than 5000 nM and 0.064 nM.
For `CC[C@H](C)[C@H](NC(=O)[C@H](CCC(N)=O)NC(=O)[C@H](Cc1c[nH]cn1)NC(=O)[C@H](C)NC(=O)[C@H](CC(C)C)NC(=O)[C@H](CCCNC(N)=O)NC(=O)[C@H](CCC(N)=O)NC(=O)[C@@H](NC(=O)[C@@H](NC(=O)[C@@H]1CSSC[C@H](NC(=O)CN)C(=O)N[C@@H](CCCNC(=N)N)C(=O)N[C@@H](Cc2ccccc2)C(=O)NCC(=O)N[C@@H]([C@@H](C)O)C(=O)N1)[C@@H](C)O)C(C)C)C(=O)N[C@@H](Cc1ccc(O)cc1)C(=O)N[C@@H](CCC(N)=O)C(=O)N[C@@H](Cc1ccccc1)C(=O)N[C@H](C(=O)N[C@@H](CC(=O)O)C(=O)N[C@@H](CCCCN)C(=O)N[C@@H](CC(=O)O)C(=O)N[C@@H](CCCCN)C(=O)N[C@@H](CC(=O)O)C(=O)N[C@@H](CC(N)=O)C(=O)N[C@H](C(=O)N[C@@H](C)C(=O)N1CCC[C@H]1C(=O)N[C@@H](CCCNC(=N)N)C(=O)N[C@@H](CO)C(=O)N[C@@H](CC(N)=O)C(=O)N[C@H](C(=O)N[C@@H](CO)C(=O)N1CCC[C@H]1C(=O)N[C@@H](CCC(N)=O)C(=O)NCC(=O)N1C[C@H](O)C[C@H]1C(N)=O)C(C)C)C(C)C)[C@@H](C)O` [compound 293] (H-GCRFGTCTVQ[Cit]LAHQIYQFTDKDKDNVAPRSNVSPQG[Hyp]-NH2; disulfide 2-7; N-terminus assumed), in that order: 24.200%, greater than 5000 nM and 0.063 nM.
Regarding `CC[C@H](C)[C@H](NC(=O)[C@H](CCC(N)=O)NC(=O)[C@H](Cc1c[nH]cn1)NC(=O)[C@H](C)NC(=O)[C@H](CC(C)C)NC(=O)[C@H](CCCNC(N)=O)NC(=O)[C@H](CCC(N)=O)NC(=O)[C@@H](NC(=O)[C@@H](NC(=O)[C@@H]1CSSC[C@H](NC(=O)CN)C(=O)N[C@@H](CCCNC(=N)N)C(=O)N[C@@H](Cc2ccccc2)C(=O)NCC(=O)N[C@@H]([C@@H](C)O)C(=O)N1)[C@@H](C)O)C(C)C)C(=O)N[C@@H](Cc1ccc(O)cc1)C(=O)N[C@@H](CCC(N)=O)C(=O)N[C@@H](Cc1ccccc1)C(=O)N[C@H](C(=O)N[C@@H](CC(=O)O)C(=O)N[C@@H](CCCCN)C(=O)N[C@@H](CC(=O)O)C(=O)N[C@@H](CCCCN)C(=O)N[C@@H](CC(=O)O)C(=O)N[C@@H](CC(N)=O)C(=O)N[C@H](C(=O)N[C@@H](C)C(=O)N1CCC[C@H]1C(=O)N[C@@H](CCCNC(=N)N)C(=O)N[C@H](C(=O)N[C@@H](CCCCN)C(=O)N[C@H](C(=O)N[C@@H](CO)C(=O)N1CCC[C@H]1C(=O)N[C@@H](CCC(N)=O)C(=O)NCC(=O)N1C[C@H](O)C[C@H]1C(N)=O)[C@@H](C)CC)[C@@H](C)O)C(C)C)[C@@H](C)O` [compound 294] (H-GCRFGTCTVQ[Cit]LAHQIYQFTDKDKDNVAPRTKISPQG[Hyp]-NH2; disulfide 2-7), in data set [1], the “Max ThT signal (%)” value is 16.850%. The EC50 in data set [2] is greater than 5000 nM; in data set [3] it was 0.045 nM.
The like results for `CC[C@H](C)[C@H](NC(=O)[C@H](CC(N)=O)NC(=O)[C@H](CO)NC(=O)[C@H](CCCNC(=N)N)NC(=O)[C@@H]1CCCN1C(=O)[C@H](C)NC(=O)[C@@H](NC(=O)[C@H](CC(N)=O)NC(=O)[C@H](CC(=O)O)NC(=O)[C@H](CCCCN)NC(=O)[C@H](CC(=O)O)NC(=O)[C@H](CCCCN)NC(=O)[C@H](CC(=O)O)NC(=O)[C@@H](NC(=O)[C@H](Cc1ccccc1)NC(=O)[C@H](CCC(N)=O)NC(=O)[C@H](Cc1ccc(O)cc1)NC(=O)[C@@H](NC(=O)[C@H](CCC(N)=O)NC(=O)[C@H](Cc1c[nH]cn1)NC(=O)[C@H](C)NC(=O)[C@H](CC(C)C)NC(=O)[C@H](CCCNC(N)=O)NC(=O)[C@H](CCC(N)=O)NC(=O)[C@@H](NC(=O)[C@@H](NC(=O)[C@@H]1CSSC[C@H](NC(=O)CN)C(=O)N[C@@H](CCCNC(=N)N)C(=O)N[C@@H]([C@@H](C)O)C(=O)NCC(=O)N[C@@H]([C@@H](C)O)C(=O)N1)[C@@H](C)O)C(C)C)[C@@H](C)CC)[C@@H](C)O)C(C)C)C(=O)NCC(=O)N1CCC[C@H]1C(=O)N[C@@H](CC(N)=O)C(=O)NCC(=O)N1C[C@H](O)C[C@H]1C(N)=O` [compound 297] (H-GCRTGTCTVQ[Cit]LAHQIYQFTDKDKDNVAPRSNIGPNG[Hyp]-NH2; disulfide 2-7; N-terminus assumed) were, in that order, 27.500%, greater than 5000 nM and 0.026 nM.
